Measured values as given in patent publication US20190017060A1, “MANIPULATION OF PROANTHOCYANIDIN (PA) COMPOSITION BY AFFECTING ANTHOCYANIDIN SYNTHASE (ANS) AND LEUCOANTHOCYANIDIN DIOXYGENASE (LDOX)” (University of North Texas, priority 2017, published 2019).

Columns and labels:
Type in all cases: biochemical, Medicago truncatula
LDOX and ANR proteins = test: Combined enzyme reaction of LDOX with ANR; conditions: 200 μM substrate, 10 mM NADPH, 50 μg LDOX and ANR proteins, HPLC at 280 nm
Method: (§1) It was previously reported that ANS can convert leucocyanidin to cyanidin. To confirm this, separate enzyme reactions were set up for ANS and LDOX by incubating with leucocyanidin according to Tanner et al. The enzyme reaction was prepared in 100 μL volume including 20 mM potassium phosphate buffer (pH 7.0), 1 mM 2-oxoglutarate, 0.4 mM ammonium iron(II) sulfate, 4 mM sodium ascorbate, 100 mM NaCl, 10 mM maltose, 5 mM DTT and 50 μg recombinant proteins. The reactions were carried out for 1 h at 30° C. and terminated by addition of 1 μL 36% HCl and 10 μL 100% methanol. The reaction mixture was centrifuged for 5 min at 13,000 rpm at 4° C. and analyzed by HPLC. All reverse-phase HPLC analyses were performed on an Agilent HP1100 HPLC using the following gradient: solvent A (1% phosphoric acid) and B (acetonitrile) at 1 ml/min flow rate: 0-5 min, 5% B; 5-10 min, 5-10% B; 10-25 min, 10-17% B; 25-30 min, 17-23% B; 30-65 min, 23-50% B; 65-79 min, 50-100% B; 79-80 min, 100-5% B. Data were collected at 280 and 530 nm for flavonoids and anthocyanidins, respectively. Identifications were based on chromatographic behavior and UV spectra compared with those of authentic standards.
(§2) Next, the combined reaction of ANS or LDOX with ANR was tested to check if (+)-catechin can be converted to (−)-epicatechin, which is the almost exclusive monomer unit of PA polymers in Medicago truncatula. […]

ANS = test: Enzyme assay with recombinant ANS protein, HPLC detection of cyanidin; conditions: 50 μg recombinant protein, 1 h at 30° C., HPLC at 530 nm; flavan-3-ols at 200 μM
Method: (§3) The full length ANS and LDOX cDNAs were cloned into pMal-c5x vector (New England Biolabs) at the SalI and BamHI site and BamHI and EcoRI site, respectively. The expression constructs were transformed into E. coli strain NEB® Express Competent E. coli (New England Biolabs). Transformed bacteria were grown in LB medium supplemented with 0.2% glucose to OD 600 of 0.5, and IPTG was added at 0.3 mM to induce protein expression. Bacteria were harvested after 4 h induction. ANS and LDOX proteins were purified with amylose resin (NEB, E8021) following the manufacturer's protocol. Briefly, bacteria were lysed by sonication at 4° C. in extraction buffer (20 mM Tris pH 7.0, 200 mM NaCl, 1 mM DTT). The bacterial lysates were centrifuged at 12,000 g for 15 min at 4° C. The supernatants were loaded on amylose resin which was washed with wash buffer (extraction buffer). Finally, proteins were eluted by elution buffer (20 mM Tris pH 7.0, 200 mM NaCl, 1 mM DTT, 10 mM maltose). Purified proteins were concentrated with an Amicon® Ultra-4 Centrifugal Filter (Millipore) and aliquoted to store at −80° C.
as §1
(§4) Since catechin was highly accumulated in the ldox mutant, it was tested whether ANS or LDOX protein can react with (+)-catechin (2R, 3S), which is stated as a naturally synthesized monomeric unit of PAs. The same enzyme reaction was set up but using 200 μM of (+)-catechin as substrate instead of leucocyanidin. Reactions without 2-oxoglutarate (-oxo) were run as negative controls. […] The enzyme reaction was performed with (+)-catechin as substrate and recombinant ANS or LDOX protein. Arrowhead indicates the peak for cyanidin (Cy) standard. Reactions without 2-oxoglutarate were run as negative controls and are denoted as -oxo. […] The enzyme assay was performed with (−)-catechin, (−)-epicatechin or (+)-epicatechin as substrate and purified recombinant ANS or LDOX protein. The substrate in each reaction is indicated. (−)-cat, (−)-catechin; (−)-epi, (−)-epicatechin; (+)-epi, (+)-epicatechin. […] The gray arrow denotes the catalyzed reaction in vitro. The proteins used are indicated in each chromatogram.

LDOX = test: Enzyme assay with recombinant LDOX protein, HPLC detection of cyanidin; conditions: 50 μg recombinant protein, 1 h at 30° C., HPLC at 530 nm; flavan-3-ols at 200 μM
Method: as §3, §1, §4

ANS and ANR proteins = test: Combined enzyme reaction of ANS with ANR; conditions: 200 μM substrate, 10 mM NADPH, 50 μg ANS and ANR proteins, HPLC at 280 nm
Method: as §1, §2

Molecule | (+)-catechin converted to epicatechin (LDOX and ANR proteins) | in vitro conversion of substrate to cyanidin by ANS (ANS) | in vitro conversion of substrate to cyanidin by LDOX (LDOX) | (+)-catechin converted to epicatechin (ANS and ANR proteins)
Oc1cc(O)c2c(c1)O[C@H](c1ccc(O)c(O)c1)[C@@H](O)C2 [(+)-catechin] | more than 70% | catalyze the in vitro conversion of (+)-catechin to cyanidin | catalyze the in vitro conversion of (+)-catechin to cyanidin | more than 70%
Oc1cc(O)c2c(c1)O[C@@H](c1ccc(O)c(O)c1)[C@@H](O)C2 [(+)-epicatechin] |  | No cyanidin generation was detected | No cyanidin generation was detected | 
Oc1cc(O)c2c(c1)O[C@H](c1ccc(O)c(O)c1)[C@H](O)C2 [(−)-epicatechin] |  | No cyanidin generation was detected | No cyanidin generation was detected | 
Oc1cc(O)c2c(c1)OC(c1ccc(O)c(O)c1)C(O)C2O (stereo not drawn) [leucocyanidin] |  | catalyzed in vitro conversion of leucocyanidin to cyanidin | catalyzed in vitro conversion of leucocyanidin to cyanidin | 
(−)-catechin |  | No cyanidin generation was detected | No cyanidin generation was detected | 
